# Laboratory results taken from patent publication US4416877A, “Anti-atherosclerotic pharmaceutical compositions containing diphosphonate compounds” (priority 1979, dated 1983).
# Where two headings read alike, the source gives them in different places.
# Assays:
# [1] = test system: tissue cholesterol; test: Effects in cholesterol fed rats (serum, liver and aorta lipids); assay type: in vivo; conditions: for change in vivo at 200 mg/kg/day: Rattus norvegicus
# Procedure, shortened: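 Rats given a high fat–high cholesterol diet (4.5% cholesterol, 1.8% sodium cholate) for 10 days to 3 months, then normal food plus compound at 200 mg/kg/day for 10 days to 3 months. Liver and aorta lipids Folch-extracted; total lipids by sulfophosphovanillic reaction, cholesterol by Liebermann–Burchard or enzymatic method. Values expressed as % of control.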
# [2] = Oral LD50 toxicity; assay type: in vivo
# Source text: Following the extensive pharmacological screening of these compounds, using over 2000 animals, those showing the most potential were then subjected to toxicity testing for further selection relative to their activity/toxicity risk profiles
# By way of LD50 (Lethal Dose 50) the methyl diphosphonates were discovered to have a significant lower degree of toxicity. […] This represents a significant six fold difference in toxicity.
# [3] = Weight of fat tissue from rats treated for 90 days; assay type: in vivo, male and female rats
# Experimental: Treating male and female rats with 40, 400 and 800 mg/kg of compound 16 per day for 90 days produced a sustained dose response augmentation in serum high density lipoprotein cholesterol (HDL-C or α-cholesterol) as high as 220% above controls at high dose level (Table VI).
# [4] = test system: aorta cholesterol; test: Aorta cholesterol clearing activity in cholesterol pre-fed rabbits; assay type: in vivo; conditions: 4 months; for Aortic Cholesterol Free/Ester Ratio / Aortic Cholesterol, Arch / Aortic Cholesterol, Thoracic / Aortic Cholesterol, Total / Aortic Phospholipids, Arch / Aortic Phospholipids, Thoracic / Aortic Phospholipids, Total: n = 5
# [5] = Atheromateous surface involvement and intima thickening of aortas in cholesterol pre-fed rabbits; assay type: in vivo; conditions: 4 months
# [6] = test system: blood pressure; test: Cardiovascular changes (blood pressure, heart rate) produced by one dose in a Cynomolgus monkey; assay type: in vivo; conditions: for Blood pressure / Heart Rate: 250 mg/kg p.o.
# [7] = test system: renin; test: Renin activity in normal monkeys treated for 60 days; assay type: in vivo, Cynomolgus monkeys
# Source text: In order to further elucidate the mechanism of the previously observed hypotensive activity, the renin-angiotensin system was also monitored in these animals at the same time. […] However at this dosage concentration the inhibition appeared to be time dependent.
# [8] = test system: plasma lipoproteins; test: Plasma lipoproteins in Cynomolgus monkeys fed simultaneously a high cholesterol diet during 60 days; assay type: in vivo; conditions: for HDL Chol. / α/β Chol. ratio: n = 7
# Experimental: (§1) | Dose: 25 mg d.i.d. per day
# [9] = test system: renin; test: Renin activity in Cynomolgus monkeys fed simultaneously a high cholesterol diet; assay type: in vivo; conditions: for Renin Activity: n = 7
# Experimental: as §1
# [10] = test system: lipoproteins; test: Effect on lipoproteins from 5 treated human patients; assay type: in vivo; conditions: for HDL2 Cholesterol / HDL2 Free/Total Cholesterol ratio / HDL3 Cholesterol / HDL3 Free/Total Cholesterol ratio / LDL Cholesterol / LDL Free/Total Cholesterol ratio / VLDL Cholesterol / VLDL Free/Total Cholesterol ratio: n = 5; for HDL2 Free/Total Cholesterol ratio, % change / HDL3 Cholesterol, % change / HDL3 Free/Total Cholesterol ratio, % change / VLDL Free/Total Cholesterol ratio, % change: vs pre-test
# Experimental: Five human patients were treated over several days with either 5 mg/kg or 10 mg/kg of compound 16 (Table XV). […] It is generally recognized that an increase in free cholesterol ratio is indicative of an increased clearing or turnover of the lipoprotein cholesterol (Schwartz, C. C. Biochem. Biophys. Acta 663:143-162, 1981).
# [11] = cholesterol fed rats (C.F), 200 mg/kg/day
# [12] = 30 days on high cholesterol diet
# [13] = 60 days on high cholesterol diet
# [14] = simultaneous cholesterol-compound 16 treatment
structure (smiles),measurement,setting,value
"COP(=O)(OC)OC(c1ccc(Cl)cc1)P(=O)(OC)OC (stereo not drawn) [Compound 16, Dimethyl α(dimethoxyphosphinyl) p-chlorobenzyl phosphate]",change in vivo at 200 mg/kg/day,"[1]; cholesterol fed rats (C.F), 200 mg/kg/day, read-out: Liver Chol. (% control values)",-57%
same,change in vivo at 200 mg/kg/day,"[1]; cholesterol fed rats (C.F), 200 mg/kg/day, read-out: Liver Total Lipids (% control values)",-32%
same,liver total lipids and/or liver cholesterol,[1]; cholesterol fed rats,decreased significantly
same,Aorta Chol. (% control values),[1]; [11],-30%
same,Aorta Total Lipids (% control values),[1]; [11],-37%
same,Serum Chol. α/β (% control values),[1]; [11],+169%
same,LD50,"[2]; in vivo, oral",3040 mg/kg
same,"difference in toxicity (LD50, compound 16 vs compound 24)",[2]; oral LD50,six fold
same,decreasing the weight of fat tissue,"[3]; 40, 400 and 800 mg/kg",impressive dose response effect in decreasing the weight of fat tissue
same,Weight of fat tissue,"[3]; females, 40 mg/kg, n = 10",1.33 ± 0.66 g
same,Weight of fat tissue,"[3]; females, 400 mg/kg, n = 5",0.39 ± 0.24 g
same,Weight of fat tissue,"[3]; females, 800 mg/kg, n = 5",0.48 ± 0.14 g
same,Weight of fat tissue,"[3]; males, 40 mg/kg, n = 8",2.49 ± 0.94 g
same,Weight of fat tissue,"[3]; males, 400 mg/kg, n = 5",1.95 ± 0.52 g
same,Weight of fat tissue,"[3]; males, 800 mg/kg, n = 5",0.97 ± 0.30 g
same,Aortic Cholesterol Free/Ester Ratio,[4]; 100 mg/kg/day,0.5 ± 0.1
same,"Aortic Cholesterol, Arch",[4]; 100 mg/kg/day,17.9 ± 2.9 mg/g
same,"Aortic Cholesterol, Thoracic",[4]; 100 mg/kg/day,10.6 ± 2.8 mg/g
same,"Aortic Cholesterol, Total",[4]; 100 mg/kg/day,20.8 ± 6.5 mg/Aorta
same,"Aortic Phospholipids, Arch",[4]; 100 mg/kg/day,4.6 ± 1.4 mg/g
same,"Aortic Phospholipids, Thoracic",[4]; 100 mg/kg/day,4.5 ± 1.5 mg/g
same,"Aortic Phospholipids, Total",[4]; 100 mg/kg/day,6.5 ± 1.6 mg/Aorta
same,Aortic Cholesterol Free/Ester Ratio,[4]; 200 mg/kg/day,0.4 ± 0.1
same,"Aortic Cholesterol, Arch",[4]; 200 mg/kg/day,22.8 ± 3.4 mg/g
same,"Aortic Cholesterol, Thoracic",[4]; 200 mg/kg/day,11.0 ± 4.2 mg/g
same,"Aortic Cholesterol, Total",[4]; 200 mg/kg/day,18.3 ± 6.7 mg/Aorta
same,"Aortic Phospholipids, Arch",[4]; 200 mg/kg/day,5.9 ± 1.3 mg/g
same,"Aortic Phospholipids, Thoracic",[4]; 200 mg/kg/day,4.9 ± 1.9 mg/g
same,"Aortic Phospholipids, Total",[4]; 200 mg/kg/day,7.9 ± 1.8 mg/Aorta
same,"pre-established cholesterol deposits, aorta",[4]; cholesterol pre-fed rabbits,effectively decreased the pre-established cholesterol deposits
same,Arch Intima/Media Ratio,"[5]; 100 mg/kg/day, n = 4",0.79
same,"Arterial Wall Thickness, Arch Intima","[5]; 100 mg/kg/day, n = 4",41.82 ± 0.93 Units in Area
same,"Arterial Wall Thickness, Thoracic Intima","[5]; 100 mg/kg/day, n = 4",7.66 ± 0.12 Units in Area
same,"Surface Involved in Atheromateous Plaques, Arch","[5]; 100 mg/kg/day, n = 4",88 ± 9%
same,"Surface Involved in Atheromateous Plaques, Thoracic","[5]; 100 mg/kg/day, n = 4",50 ± 15%
same,"Surface Involved in Atheromateous Plaques, Total Aorta","[5]; 100 mg/kg/day, n = 4",68 ± 12%
same,Thoracic Intima/Media Ratio,"[5]; 100 mg/kg/day, n = 4",0.23
same,aorta intimal thickening,[5]; cholesterol pre-fed rabbits,decreased aorta intimal thickening
same,atherosclerosis surface involvement,[5]; cholesterol pre-fed rabbits,decreased atherosclerosis surface involvement
same,decrease of blood pressure,"[6]; 250 mg/kg oral, six hours period",at least 40%
same,Blood pressure,[6]; +1h,65 mmHg
same,Heart Rate,[6]; +1h,195 beat/min.
same,Blood pressure,[6]; +2h,70 mmHg
same,Blood pressure,[6]; +3h,100 mmHg
same,Heart Rate,[6]; +3h,195 beat/min.
same,Blood pressure,[6]; +5h,95 mmHg
same,Heart Rate,[6]; +5h,210 beat/min.
same,Blood pressure,[6]; +6h,105 mmHg
same,Heart Rate,[6]; +6h,210 beat/min.
same,Renin Activity,[7]; controls 5.9±0.9,0.3±0.1 ng AI /ml/h
same,inhibition of renin,[7]; male and female monkeys,highly significant and almost complete inhibition of renin
same,HDL Chol.,[8]; [12],49 ± 4 mg/100 ml
same,α/β Chol. ratio,[8]; [12],0.22 ± 0.05
same,HDL Chol.,[8]; [13],39 ± 6 mg/100 ml
same,α/β Chol. ratio,[8]; [13],0.22 ± 0.05
same,HDL-C values and α/β ratios,"[8]; simultaneous cholesterol feeding, 60 days",increase HDL-C values and the α/β ratios
same,Renin Activity,[9]; [12],0.8 ± 0.5 ng AI /ml/h
same,Renin Activity,[9]; [13],1.1 ± 0.2 ng AI /ml/h
same,renin inhibition,[9]; [14],essentially completely inhibited
same,"renin inhibition, fold",[9]; [14],20 fold
same,HDL2 Cholesterol,[10]; 5 mg/kg,0.82 ± 0.13 mmol/L
same,HDL2 Free/Total Cholesterol ratio,[10]; 5 mg/kg,0.231 ± 0.027
same,HDL3 Cholesterol,[10]; 5 mg/kg,0.72 ± 0.09 mmol/L
same,HDL3 Free/Total Cholesterol ratio,[10]; 5 mg/kg,0.242 ± 0.018
same,LDL Cholesterol,[10]; 5 mg/kg,3.05 ± 0.26 mmol/L
same,LDL Free/Total Cholesterol ratio,[10]; 5 mg/kg,0.304 ± 0.005
same,VLDL Cholesterol,[10]; 5 mg/kg,0.20 ± 0.03 mmol/L
same,VLDL Free/Total Cholesterol ratio,[10]; 5 mg/kg,0.472 ± 0.019
same,"HDL2 Free/Total Cholesterol ratio, % change",[10]; 5 mg/kg,+24%
same,"HDL3 Cholesterol, % change",[10]; 5 mg/kg,+36%
same,"HDL3 Free/Total Cholesterol ratio, % change",[10]; 5 mg/kg,+12%
same,"VLDL Free/Total Cholesterol ratio, % change",[10]; 5 mg/kg,+14%
same,HDL2 Cholesterol,[10]; 10 mg/kg,0.87 ± 0.07 mmol/L
same,HDL2 Free/Total Cholesterol ratio,[10]; 10 mg/kg,0.221 ± 0.003
same,HDL3 Cholesterol,[10]; 10 mg/kg,0.60 ± 0.02 mmol/L
same,HDL3 Free/Total Cholesterol ratio,[10]; 10 mg/kg,0.285 ± 0.044
same,LDL Cholesterol,[10]; 10 mg/kg,2.86 ± 0.23 mmol/L
same,LDL Free/Total Cholesterol ratio,[10]; 10 mg/kg,0.303 ± 0.002
same,VLDL Cholesterol,[10]; 10 mg/kg,0.26 ± 0.03 mmol/L
same,VLDL Free/Total Cholesterol ratio,[10]; 10 mg/kg,0.519 ± 0.031
same,"HDL2 Free/Total Cholesterol ratio, % change",[10]; 10 mg/kg,+19%
same,"HDL3 Cholesterol, % change",[10]; 10 mg/kg,+13%
same,"HDL3 Free/Total Cholesterol ratio, % change",[10]; 10 mg/kg,+32%
same,"VLDL Free/Total Cholesterol ratio, % change",[10]; 10 mg/kg,+25%
same,HDL3-cholesterol,"[10]; human patients, 5 or 10 mg/kg",significant increase
same,free/total cholesterol ratio in isolated lipoprotein fractions,"[10]; human patients, 5 or 10 mg/kg",significantly elevated
